Literature values, collected in US7790738B2, “Methods of treating and preventing AIDS using of COX-2 inhibitors” (Lauras AS, priority 2000, dated 2010).

Key:
COX-2 = molecular target: T1, COX-2 (Cavia porcellus, UniProt P70682); conditions: guinea pig macrophage model; Engelhart et al. 1995; cited from earlier work
T1 construct: NSAID's in guinea pig macrophage model; endogenous in cells; host or cells: guinea pig macrophages
T1 sequence (P70682 18-604): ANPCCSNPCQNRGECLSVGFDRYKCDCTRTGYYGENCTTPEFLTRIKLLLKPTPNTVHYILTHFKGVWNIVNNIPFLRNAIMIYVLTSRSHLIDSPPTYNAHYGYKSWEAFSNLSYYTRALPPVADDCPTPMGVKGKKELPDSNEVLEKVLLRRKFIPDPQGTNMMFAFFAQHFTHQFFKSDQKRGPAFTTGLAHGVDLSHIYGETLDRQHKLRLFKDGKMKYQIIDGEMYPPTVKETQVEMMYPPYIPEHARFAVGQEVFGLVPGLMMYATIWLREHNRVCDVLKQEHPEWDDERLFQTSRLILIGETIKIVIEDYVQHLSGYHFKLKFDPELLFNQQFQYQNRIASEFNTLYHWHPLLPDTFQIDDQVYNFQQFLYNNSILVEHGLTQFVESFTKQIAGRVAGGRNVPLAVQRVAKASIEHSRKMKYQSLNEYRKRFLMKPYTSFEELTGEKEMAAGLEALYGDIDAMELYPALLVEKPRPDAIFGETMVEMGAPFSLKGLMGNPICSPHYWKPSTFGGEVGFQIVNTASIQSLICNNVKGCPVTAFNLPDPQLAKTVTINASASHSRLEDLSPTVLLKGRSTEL

COX-1 = COX-1 (Cavia porcellus, UniProt H0V9X9); conditions: read-out: COX-1 IC50; guinea pig macrophage model; Engelhart et al. 1995; cited from earlier work
Sequence of COX-1 (H0V9X9 entry or part of it): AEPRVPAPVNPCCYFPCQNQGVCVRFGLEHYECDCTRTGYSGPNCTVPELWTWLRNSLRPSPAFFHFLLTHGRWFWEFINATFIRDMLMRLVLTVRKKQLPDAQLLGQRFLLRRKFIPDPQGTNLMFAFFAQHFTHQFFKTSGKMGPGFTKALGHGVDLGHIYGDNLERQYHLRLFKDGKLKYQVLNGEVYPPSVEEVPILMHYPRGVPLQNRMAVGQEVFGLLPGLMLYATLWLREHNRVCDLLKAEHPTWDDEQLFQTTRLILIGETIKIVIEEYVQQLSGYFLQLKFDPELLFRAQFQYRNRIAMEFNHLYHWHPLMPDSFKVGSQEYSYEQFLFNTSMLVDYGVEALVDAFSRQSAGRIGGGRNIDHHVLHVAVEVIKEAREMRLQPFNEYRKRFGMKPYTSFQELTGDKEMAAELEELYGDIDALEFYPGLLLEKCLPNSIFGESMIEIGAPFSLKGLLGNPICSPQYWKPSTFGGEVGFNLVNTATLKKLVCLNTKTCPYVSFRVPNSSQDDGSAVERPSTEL

## CN1C(C(=O)Nc2ccccn2)=C(O)c2sccc2S1(=O)=O [Tenoxicam]
COX-2
  IC50: 0.322 µM
COX-1
  IC50: 0.201 µM
